According to patent US11771648B2, “Carrier for oromucosal administration of physiologically active substances” (INSTAR TECHNOLOGIES A.S., priority 2011, dated 2023):

Experiment: solubility in water (stated in words, no method described)
Format: physicochemical
Details: qualitative statement

Row | solubility in water | SMILES
1 | very well soluble in water | COc1ccc2cc(CCC(C)=O)ccc2c1 [Nabumetone, 4-(6-methoxy-2-nafthyl)-2-butanon]
2 | good solubility in water | CNS(=O)(=O)Cc1ccc2[nH]cc(CCN(C)C)c2c1 [Sumatriptane, 1-[3-(2-dimethylaminoethyl)-1H-indol-5-yl]-N-methyl-methanesulfonamide]
